This passage reports Intracellular uptake results from publication PMC8162438, “Cancer cell-selective modulation of mitochondrial respiration and metabolism by potent organogold(III) dithiocarbamates” (Chemical Science, 2020).

The test system of the assay is MDA-MB-231. In words: Whole-cell gold uptake by ICP-OES. As to conditions: MDA-MB-231, 5 μM, 24 h. It is filed as cell-based. As for the experimental part:
We next performed cellular uptake studies to determine what percentage of the compounds were getting into the cell after treatment. Given that most therapeutic targets are localized receptors on the plasma membrane, quantifying the amount of gold compounds in cellular fractions and investigating their mode of uptake is crucial. For whole-cell uptake studies, MDA-MB-231 were treated with all 10 compounds and Auranofin at 5 μM for 24 h (Fig. 5A). Auranofin is the only gold-based therapeutic to be clinically approved, therefor we used this drug as a benchmark for comparison.[67] After treatment, the cells were washed with PBS, centrifuged, and digested with 0.5 mL of conc. […] Given that these complexes readily react with nucleophilic biological molecules and the lack of accumulation in the nuclear fraction, it is evident that the mechanism of action of this class of compounds is differentiated from the clinically available platinum agents. […]
positive control. When ready for analysis, the media were removed and the wells washed with 5 mL of PBS. […] The cells were resuspended in 2 mL of fresh media, counted, and reconstituted to a concentration of 1 x 10^5 cells/mL. […]
Compound 2a was prepared as a stock in DMSO and added to the respective wells at the specified concentrations of 0.1, 1, and 10 µM and treated for 12 h. […] The samples were cooled and stored at −20 °C until ready for use. […]

The molecule `C[N+](C)=C1[S][Au-2]2([S]1)[c]1ccccc1C(=O)c1cccc[n+]12.F[P-](F)(F)(F)(F)F` (centres unmarked) [1a] yielded an Intracellular uptake of 3017 pmol per million cells.
Molecule `C[N+](C)=C1[S][Au-2]2([S]1)[c]1ccccc1Cc1cccc[n+]12.F[P-](F)(F)(F)(F)F` (centres unmarked) [2a] had an Intracellular uptake of 3267 pmol per million cells.
